{
  "source": "patent US11234979B2",
  "about": "“Heteroaryl compounds as muscarinic M1 receptor positive allosteric modulators” (SUVEN LIFE SCIENCES LIMITED, priority 2017, dated 2022)",
  "test_system": "hippocampal theta oscillations",
  "experiment": "Theta modulation in dorsal hippocampus of anesthetized rats in combination with donepezil",
  "type": "in vivo, Male Wistar rats",
  "conditions": "anesthetized rat, Example 32 1 mg/kg",
  "description": "Evaluation of Theta Modulation in Dorsal Hippocampus of Anesthetized Male Wistar\nMale Wistar rats (240-320 g) were anesthetized by Intraperitoneal administration of urethane (1.2 to 1.5 g/kg) for implantation of a catheter in the left femoral vein. The animal was placed in a stereotaxic frame for implanting an electrode (stainless steel wire, Plastics One) into the dorsal hippocampus (AP: −3.8 mm; ML: +2.2 mm; DV: −2.5 mm; Paxinos and Watson, 2004). Bipolar stimulating electrode (untwisted stainless steel wires, separated by 0.75-1.0 mm at their tips, Plastics One) was implanted in the Nucleus Pontis Oralis (NPO; AP: −7.8 mm; ML: 1.8 mm; DV: −6.0 mm; Paxinos and Watson, 2004). Additionally one electrode was implanted into the cerebellum which served as a reference. Hippocampal θ rhythm was evoked via a 6-s electrical stimulation train (20-160 μA, 0.3-ms pulse duration, 250 Hz) delivered to the NPO at a rate of 0.01 trains/s with a Grass S88 stimulator and PSIU6 stimulus isolation unit (Grass Medical Instruments, Quincy, Mass.). EEG was recorded at a rate of 1000 Hz using Ponemah (Version 5.2) software and stored for off-line analysis using NeuroScore (Version 3.0). Baseline amplitude level was achieved by using the current required to elicit […] to 50% of the maximal amplitude under control conditions. After the stabilization period of one hour, baseline recording was done for 30 min followed by the treatment of vehicle or Example 32 (1 mg/kg, i.v.).\nPower in the θ rhythm frequency in the stimulation period during the 30-min baseline period was calculated and the % changes in these measures post treatment were calculated. […] Statistical significance was considered at a p value less than 0.05.",
  "data": [
    {"smiles": "Cn1cc(-c2ccc(Cc3cc(C(=O)N[C@H]4CCCC[C@@H]4O)n4ncccc34)cc2)cn1", "note": "[Example 32, N-(cis-1S,2S-2-Hydroxycyclohexyl)-5-[4-(1-methyl-1H-pyrazol-4-yl)-benzyl]-pyrrolo [1,2-b]pyridazine-7-carboxamide]", "values": [
      {"measurement": "Mean area under the curve values (AUC) of θ power change, combination versus donepezil alone", "setting": "i.v. + donepezil 0.3 mg/kg", "value": "significantly higher compared to donepezil alone"},
      {"measurement": "effect on θ power, combination treatment versus donepezil alone", "setting": "i.v. + donepezil 0.3 mg/kg", "value": "significantly higher than the donepezil alone"},
      {"measurement": "θ power levels", "setting": "i.v. in combination with donepezil 0.3 mg/kg", "value": "significant increase"}
    ]}
  ]
}
